≈ marks a conversion by molar mass, not a printed value. Where two headings read alike, the source gives them in different places.
How the values were obtained:
[1] = tested on: Escherichia coli B 1218; settings: cited from earlier work
[2] = tested on: Coryneform(s); settings: by Bryskier; cited from earlier work
[3] = tested on: Serotype β Streptococcus 8252; settings: cited from earlier work
[4] = tested on: Diphteroides 8264; settings: cited from earlier work
[5] = tested on: Streptococcus mitis 5728; settings: cited from earlier work
[6] = tested on: Streptococcus simulans 7866; settings: cited from earlier work
[7] = tested on: Streptococcus viridans sp.; experiment: Standard microdilution susceptibility test, clinical isolates; type: cell-based; settings: Streptococcus viridans, 20 clinical isolates
[8] = tested on: Streptococcus pneumoniae, penicillin resistant; experiment: as above; type: cell-based; settings: Streptococcus pneumoniae, 10 clinical isolates
[9] = tested on: Coagulase-negative Staphylococus sp., methicillin susceptible; experiment: as above; type: cell-based; settings: 10 clinical isolates
[10] = tested on: B. subtilis ATCC 6633; settings: by Bryskier; cited from earlier work
[11] = tested on: Staphylococcus epidermidis 7586; settings: cited from earlier work
[12] = tested on: Enterobacter cloacae B 520; settings: cited from earlier work
[13] = tested on: Bacillus subtilis ATCC 6633; settings: cited from earlier work
[14] = tested on: Micrococcus spp.; settings: cited from earlier work
[15] = tested on: Staphylococcus aureus ATCC 25923; settings: cited from earlier work
[16] = tested on: Streptococcus pneumoniae, penicillin susceptible; experiment: Standard microdilution susceptibility test, clinical isolates; type: cell-based; settings: Streptococcus pneumoniae, 10 clinical isolates
[17] = tested on: Staphylococcus capitis; settings: cited from earlier work
[18] = tested on: Propionibacterium acnes; settings: cited from earlier work
[19] = tested on: Streptococcus mitis; settings: by Bryskier; cited from earlier work
[20] = tested on: Staphylococcus aureus, methicillin resistant; experiment: Standard microdilution susceptibility test, clinical isolates; type: cell-based; settings: Staphylococcus aureus, 10 clinical isolates
[21] = tested on: Propionibacterium acnes; settings: by Bryskier; cited from earlier work
[22] = tested on: Staphylococcus epidermidis; settings: by Bryskier; cited from earlier work
[23] = tested on: Staphylococcus hominis 7835; settings: cited from earlier work
[24] = tested on: Staphylococcus aureus, methicillin susceptible; experiment: Standard microdilution susceptibility test, clinical isolates; type: cell-based; settings: Staphylococcus aureus, 10 clinical isolates
[25] = tested on: Staphylococcus aureus 7503; settings: cited from earlier work
[26] = tested on: Coagulase-negative Staphylococus sp., methicillin resistant; experiment: Standard microdilution susceptibility test, clinical isolates; type: cell-based; settings: 10 clinical isolates
[27] = tested on: Staphylococcus saprophyticus 8454; settings: cited from earlier work
[28] = tested on: S. aureus; settings: by Bryskier; cited from earlier work
[29] = tested on: S. pyogenes; settings: by Bryskier; cited from earlier work
[30] = tested on: Escherichia coli; settings: by Bryskier; cited from earlier work
[31] = tested on: S. aureus ATCC 25923; settings: by Bryskier; cited from earlier work
[32] = tested on: Enterobacter cloacae; settings: by Bryskier; cited from earlier work
[33] = tested on: Micrococcus; settings: by Bryskier; cited from earlier work
[34] = tested on: Enterococcus sp., vancomycin susceptible; experiment: Standard microdilution susceptibility test, clinical isolates; type: cell-based; settings: Enterococcus, 20 clinical isolates

SMILES: CC[C@H]1OC(=O)[C@H](C)[C@@H](O[C@H]2C[C@@](C)(OC)[C@@H](O)[C@H](C)O2)[C@H](C)[C@@H](O[C@@H]2O[C@H](C)C[C@H](N(C)C)[C@H]2O)[C@](C)(O)C[C@@H](C)C(=O)[C@H](C)[C@@H](O)[C@]1(C)O [Erythromycin]
- MIC [1]: 62.5 µg/mL (≈ 85.2 µM)
- MIC [2]: >250 µg/mL
- MIC [3]: 0.5 µg/mL (≈ 0.681 µM)
- MIC [4]: >250 µg/mL
- MIC [5]: 250 µg/mL (≈ 341 µM)
- MIC [6]: 7.8 µg/mL (≈ 10.6 µM)
- MIC50 ([7]; read-out: MIC 50%): 1 µg/mL (≈ 1.36 µM)
- MIC90 ([7]; read-out: MIC 90%): > 16 µg/mL
- MIC50 ([8]; read-out: MIC 50%): 2 µg/mL (≈ 2.73 µM)
- MIC90 ([8]; read-out: MIC 90%): > 16 µg/mL
- MIC50 ([9]; read-out: MIC 50%): 0.125 µg/mL (≈ 0.17 µM)
- MIC90 ([9]; read-out: MIC 90%): > 16 µg/mL
- MIC [10]: <0.5 µg/mL
- MIC [11]: <0.5 µg/mL
- MIC [12]: 250 µg/mL (≈ 341 µM)
- MIC [13]: <0.5 µg/mL
- MIC [14]: <0.5 µg/mL
- MIC [15]: 1.0 µg/mL (≈ 1.36 µM)
- MIC50 ([16]; read-out: MIC 50%): 0.03 µg/mL (≈ 0.0409 µM)
- MIC90 ([16]; read-out: MIC 90%): 0.03 µg/mL (≈ 0.0409 µM)
- MIC [17]: <0.5 µg/mL
- MIC [18]: <0.5 µg/mL
- MIC [19]: 250 µg/mL (≈ 341 µM)
- MIC50 ([20]; read-out: MIC 50%): > 16 µg/mL
- MIC90 ([20]; read-out: MIC 90%): > 16 µg/mL
- MIC [21]: <0.5 µg/mL
- MIC [22]: <0.5 µg/mL
- MIC [23]: 250 µg/mL (≈ 341 µM)
- MIC50 ([24]; read-out: MIC 50%): 0.125 µg/mL (≈ 0.17 µM)
- MIC90 ([24]; read-out: MIC 90%): > 16 µg/mL
- MIC [25]: >250 µg/mL
- MIC50 ([26]; read-out: MIC 50%): 0.25 µg/mL (≈ 0.341 µM)
- MIC90 ([26]; read-out: MIC 90%): > 16 µg/mL
- MIC [27]: 1.0 µg/mL (≈ 1.36 µM)
- MIC [28]: >250 µg/mL
- MIC [29]: 0.5 µg/mL (≈ 0.681 µM)
- MIC [30]: 62.5 µg/mL (≈ 85.2 µM)
- MIC [31]: 1.0 µg/mL (≈ 1.36 µM)
- MIC [32]: 250 µg/mL (≈ 341 µM)
- MIC [33]: <0.5 µg/mL
- MIC50 ([34]; read-out: MIC 50%): 1 µg/mL (≈ 1.36 µM)
- MIC90 ([34]; read-out: MIC 90%): > 16 µg/mL

Reference: US20140303105A1, “Primycin and components thereof for use in the treatment or prevention of infections caused by specific pathogens” (PANNONPHARMA GYÓGYSZERGYÁRTÓ ZRT., priority 2011, published 2014)
